According to US20120270832A1, “KETONE ACCUMULATION INHIBITOR” (MITSUI SUGAR CO., LTD., priority 2008, published 2012):
“Also recorded” adds a separate entry of the source.

How the values were obtained:
[1] = into 100 g water at 20° C.; cited from earlier work
[2] = Drinking test: test drink intake after one hour of exercising; type: in vivo, human; settings: for blood free fatty acid levels changes over time: FIG. 4; for blood lactic acid levels changes over time: FIG. 5; for blood total ketone bodies levels changes over time: FIG. 13; for amount of oxidized carbohydrate changes over time / amount of oxidized lipids (fat) changes over time: calculated from VO2 and VCO2 by Frayn's equation; for amount of oxidized carbohydrate changes over time: FIG. 7; for amount of oxidized lipids (fat) changes over time: FIG. 8; for respiratory quotient changes over time: calculated from oxygen intake and carbon dioxide excretion, FIG. 6; for lipid oxidation, overall finding: recognized from FIGS. 4, 5, 7 and 8; for blood glucose levels (blood sugar level) changes over time: male subjects with suspected metabolic syndrome, drink in 500 ml water taken after 1 h exercise at about 50% VO2 max, blood sampled 10-120 min after intake, FIG. 1
Description: To male subjects with suspected metabolic syndrome and 85 cm or more of abdominal circumferences who lack in exercise, the following test was conducted. […] The subjects, who had family histories of cardiopathy or type 2 diabetes and/or had dyslipidemia, were eliminated from the test. Palatinose or high-fructose corn syrup was dissolved in 500 ml of water so that its intake per kg of body weight could be 1.0 g of the solid, and sucralose, a high intensity sweetener, was dissolved in 500 ml of water so that its intake per kg of body weight could be 1.33 mg of the solid that gives the degree of sweetness between the high-fructose corn syrup and palatinose solutions, to prepare three kinds of test drinks. For these three kinds of drinks, drinking tests were conducted, respectively and each test was conducted at intervals of ten days or longer. The high-fructose corn syrup is composed of glucose and fructose, the same constituent sugars as sucrose and palatinose, and its calorie per the solid is 4 kcal/g which is the same value as that of sucrose and palatinose.
The method of physical measurement for the subjects was based on ACSM guideline (American College of Sports Medicine, 2001). Respiratory gas was collected and analyzed by a respiratory gas automatic analyzer (Oxycon Alpha, manufactured by Mijnhardt) every 30 seconds during the test. Maximal oxygen uptake (VO2max) was calculated by increasing exercise loading gradually with a bicycle ergometer (818E, manufactured by Monark).
The tests were conducted as a double-blind crossover tests and dietary restriction was imposed on the subjects from two days before the tests. All subjects were instructed to abstain from alcohol, caffeine, green tea and high-intensity exercising 24 hours before the tests. Moreover, they recorded food intake two days before the first tests and repeated the same food intake before the second tests. This is for standardizing of the food intake before the tests and for minimizing the change of glycogen storage. All subjects took the same food as the dinner a day before all tests (725 kcal, 60% of the energy from carbohydrate, 30% from lipid and 10% from protein). After an overnight (10 hours to 12 hours) fast, the tests were conducted. During the fasting period, they were permitted to take water freely.
In order to avoid the effect of circadian rhythm, the tests were started at the same time. After the 15 minutes rest, the first venous blood sampling was conducted. The subjects exercised for an hour with loading of about 50% of VO2 max by a bicycle ergometer. After exercising, blood sampling was conducted and they took the test drinks for 5 minutes. Blood sampling was conducted at time points of 10, 20, 30, 45, 60, 75, 90, 105 and 120 minutes after the test drink was taken in. The collected blood samples were submitted for various biochemical measurements. After the drink intake, their heart rates were continuously measured with an electrocardiograph (Dyan Scope, manufactured by Fukuda Denshi).
On the assumption that oxidation of proteins during exercising can be ignored, oxidation of total carbohydrates and lipids was calculated from VO2 and VCO2 using Frayn's equation. The VO2 and VCO2 represent oxygen intake and carbon dioxide excretion in L/min, respectively. Respiratory quotient (RQ) was calculated from oxygen intake and carbon dioxide excretion. Calorie consumption rate was calculated from RQ and VO2 using Lusk's equation.

SMILES	solubility into 100 g water [1] [g]	blood insulin levels changes over time (insulin secretion) ([2]; drink intake after exercising, FIG. 2)	blood free fatty acid levels changes over time ([2]; drink intake after exercising)	blood lactic acid levels changes over time ([2]; drink intake after exercising)	blood neutral fat levels changes over time ([2]; drink intake after exercising, FIG. 9)	blood epinephrine levels changes over time ([2]; drink intake after exercising, FIG. 10)	blood nolepinephrine levels changes over time ([2]; drink intake after exercising, FIG. 11)	blood total ketone bodies levels changes over time ([2]; drink intake after exercising)	amount of oxidized carbohydrate changes over time ([2]; drink intake after exercising)	amount of oxidized lipids (fat) changes over time ([2]; drink intake after exercising)	respiratory quotient changes over time ([2]; drink intake after exercising)	lipid oxidation, overall finding ([2]; drink intake after exercising)	blood glucose levels (blood sugar level) changes over time [2]	blood 3-OHBA levels changes over time ([2]; drink intake after exercising, FIG. 12)
O.OC[C@H]1O[C@H](OC[C@H]2OC(O)(CO)[C@@H](O)[C@@H]2O)[C@H](O)[C@@H](O)[C@@H]1O (stereo partly shown) [Palatinose monohydrate]	38.4													
OC[C@H]1O[C@H](OC[C@H]2OC(O)(CO)[C@@H](O)[C@@H]2O)[C@H](O)[C@@H](O)[C@@H]1O (stereo partly shown) [palatinose, isomaltulose]		mild	between those in taking high-fructose corn syrup and in taking sucralose	between those in taking high-fructose corn syrup and in taking sucralose	no effect	no effect	no effect	dropped without their accumulation in blood; also recorded: inhibit accumulation of ketone bodies	between those of high-fructose corn syrup and sucralose	between those of high-fructose corn syrup and sucralose	between those in taking high-fructose corn syrup and in taking sucralose	rather difficult to prevent	rose slowly thereafter, surpassed that in the case of taking high-fructose corn syrup around 60 minutes thereafter, and continued maintaining a relatively high value	
OC[C@H]1O[C@H](O[C@]2(CCl)O[C@H](CCl)[C@@H](O)[C@@H]2O)[C@H](O)[C@@H](O)[C@H]1Cl [sucralose, reference compound]			the higher values were maintained	no change				rose	lower values	higher values	~0.7	maintained	did not rise	rose
